From patent US20170197935A1, “INHIBITORS OF DNA GYRASE FOR THE TREATMENT OF BACTERIAL INFECTIONS” (Vitas Pharma Research Private Limited, priority 2012, published 2017)
In brackets after ≈: the same amount, converted by molar mass.

Legend:
[1] = tested on: Streptococcus pneumoniae (ATCC 6301); assay: MIC by microbroth dilution, Streptococcus pneumoniae ATCC 6301; type: cell-based; conditions: ATCC6301
Experimental: (§1) Shown below are the microbiological activities of representative compounds of Formula I of the invention. The compounds were tested by the microbroth dilution method (National committee for Clinical Laboratory Standards, 2011, […]-08) and the Minimum Inhibitory Concentration (MIC) was determined.

[2] = tested on: Staphylococcus aureus (ATCC 29213); assay: MIC by microbroth dilution, Staphylococcus aureus ATCC 29213; type: cell-based; conditions: ATCC29213
Experimental: as §1

[3] = tested on: Methicillin resistant Staphylococcus aureus (ATCC 33591); assay: MIC by microbroth dilution, MRSA ATCC 33591; type: cell-based; conditions: ATCC33591, Formula I compounds, read-out: MIC Methicillin resistant Staphylococcus aureus (ATCC 33591)
Experimental: (§2) Shown below are the microbiological activities of representative compounds of Formula I of the invention. The compounds were tested by the microbroth dilution method (National committee for Clinical Laboratory Standards, 2011, M07-08) and the Minimum Inhibitory Concentration (MIC) was determined.
(§3) Analysis of microbiological activity of compounds shown below are the microbiological activities of representative compounds of Formula II of the invention. The compounds were tested by the microbroth dilution method as per the reference in Example 1.

E. coli (ATCC 25922) = assay: MIC by microbroth dilution, E. coli ATCC 25922; type: cell-based; conditions: Escherichia coli, ATCC25922, Formula I compounds, read-out: MIC E. coli (ATCC 25922)
Experimental: as §2, §3

[4] = tested on: K. pneumoniae (ATCC 700603); assay: MIC by microbroth dilution, K. pneumoniae ATCC 700603; type: cell-based; conditions: Klebsiella pneumoniae, ATCC700603, Formula I compounds
Experimental: as §2, §3

[5] = tested on: Moraxella catarrhalis (ATCC 8176); assay: MIC by microbroth dilution, Moraxella catarrhalis ATCC 8176; type: cell-based; conditions: ATCC8176
Experimental: as §1

[6] = tested on: Enterococcus faecalis (ATCC 29212); assay: MIC by microbroth dilution, Enterococcus faecalis ATCC 29212; type: cell-based; conditions: ATCC29212
Experimental: as §1

E. coli Gyrase = target: T1, E. coli Gyrase (Escherichia coli, UniProt P0AES4+P0AES6); assay: in vitro Gyrase supercoiling assay (Inspiralis kit); type: biochemical; conditions: 1 hour at 37° C., read-out: % inhibition of DNA supercoiling activity; for inhibition at 0.1 µM: 0.1 μM compound; for inhibition at 1 µM: 1 μM compound
T1 construct: purchased Inspiralis
Experimental: To test for target specificity, the activity of compounds was evaluated in an in vitro Gyrase assay using recombinant Gyrase protein as per the instructions of the assay kit (Inspiralis). The assay measures the ability of E. coli Gyrase to convert relaxed plasmid DNA into the supercoiled form. The enzyme is incubated with the substrate (relaxed DNA) in the presence and absence of compounds for 1 hour at 37° C. and the DNA is run on a gel at low voltage for several hours. The gel is then stained with Ethidium bromide and DNA in the different forms is quantified using DNA imaging and quantification software (Image Lab). The activity of the enzyme is proportional to the amount of supercoiled form detected.

T1 sequence (P0AES4 whole entry, one chain of several): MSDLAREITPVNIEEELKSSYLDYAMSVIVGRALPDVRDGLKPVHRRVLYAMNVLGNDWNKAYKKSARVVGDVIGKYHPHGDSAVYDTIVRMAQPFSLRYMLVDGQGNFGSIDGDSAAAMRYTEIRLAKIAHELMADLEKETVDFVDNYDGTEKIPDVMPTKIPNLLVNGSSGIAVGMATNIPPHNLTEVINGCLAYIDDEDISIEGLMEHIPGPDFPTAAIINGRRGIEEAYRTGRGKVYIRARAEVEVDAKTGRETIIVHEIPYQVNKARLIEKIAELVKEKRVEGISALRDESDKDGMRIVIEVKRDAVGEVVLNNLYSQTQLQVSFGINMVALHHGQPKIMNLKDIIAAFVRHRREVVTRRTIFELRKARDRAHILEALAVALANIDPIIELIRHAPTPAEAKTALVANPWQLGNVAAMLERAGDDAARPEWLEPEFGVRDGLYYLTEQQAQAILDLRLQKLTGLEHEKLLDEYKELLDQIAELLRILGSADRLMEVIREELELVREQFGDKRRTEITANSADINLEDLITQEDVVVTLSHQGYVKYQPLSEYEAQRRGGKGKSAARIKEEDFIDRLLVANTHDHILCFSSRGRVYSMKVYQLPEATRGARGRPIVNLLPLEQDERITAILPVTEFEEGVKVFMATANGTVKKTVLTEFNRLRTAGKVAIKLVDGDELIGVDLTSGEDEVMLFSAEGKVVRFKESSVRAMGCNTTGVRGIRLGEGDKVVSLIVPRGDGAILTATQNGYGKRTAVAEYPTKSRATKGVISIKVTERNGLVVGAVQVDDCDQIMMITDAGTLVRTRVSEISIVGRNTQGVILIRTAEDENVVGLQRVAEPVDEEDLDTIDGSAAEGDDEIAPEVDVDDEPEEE

SMILES: COc1ccc2ncc(=O)n(CCN3CCC(NCc4ccc(F)c([N+](=O)[O-])c4)CC3)c2c1 [VT-03-00056]
- MIC [1]: 0.25 µg/mL (≈ 0.549 µM)
- MIC [2]: 0.25 µg/mL (≈ 0.549 µM)
- MIC [3]: 0.5 µg/mL (≈ 1.1 µM)
- MIC (E. coli (ATCC 25922)): 4 µg/mL (≈ 8.78 µM)
- MIC [4]: > 32 µg/mL
- MIC [5]: 1 µg/mL (≈ 2.2 µM)
- MIC [6]: 8 µg/mL (≈ 17.6 µM)

SMILES: COc1ccc2ncc(C#N)c(CCN3CCC(NCc4cc([N+](=O)[O-])ccc4O)CC3)c2c1 [VT-03-00059]
- MIC [1]: 2 µg/mL (≈ 4.33 µM)
- MIC [2]: 0.25 µg/mL (≈ 0.542 µM)
- MIC [3]: 1 µg/mL (≈ 2.17 µM)
- MIC (E. coli (ATCC 25922)): > 32 µg/mL
- MIC [4]: > 32 µg/mL
- MIC [5]: 8 µg/mL (≈ 17.3 µM)
- MIC [6]: 8 µg/mL (≈ 17.3 µM)

SMILES: COc1ccc2ncc(OCCN3CCC(NCc4ccc(C)c([N+](=O)[O-])c4)CC3)nc2c1 [VT-03-00062a]
- MIC [1]: 0.5 µg/mL (≈ 1.11 µM)
- MIC [2]: 0.5 µg/mL (≈ 1.11 µM)
- MIC [3]: 1 µg/mL (≈ 2.21 µM)
- MIC (E. coli (ATCC 25922)): 4 µg/mL (≈ 8.86 µM)
- MIC [4]: > 32 µg/mL
- MIC [5]: 2 µg/mL (≈ 4.43 µM)
- MIC [6]: 4 µg/mL (≈ 8.86 µM)

SMILES: COc1ccc2ncc(C#N)c(CCN3CCC(NCc4ccc(N(C)C)c([N+](=O)[O-])c4)CC3)c2c1 [VT-03-00064]
- MIC [1]: 0.12 µg/mL (≈ 0.246 µM)
- MIC [2]: 0.12 µg/mL (≈ 0.246 µM)
- MIC [3]: 0.25 µg/mL (≈ 0.512 µM)
- inhibition at 0.1 µM (E. coli Gyrase): 89.3%
- inhibition at 1 µM (E. coli Gyrase): 98.1%
- MIC (E. coli (ATCC 25922)): 4 µg/mL (≈ 8.19 µM)
- MIC [4]: > 32 µg/mL
- MIC [5]: 0.25 µg/mL (≈ 0.512 µM)
- MIC [6]: 2 µg/mL (≈ 4.09 µM)

SMILES: Cc1ccc(CNC2CCN(CCn3c(=O)ccc4ccc(C#N)cc43)CC2)cc1[N+](=O)[O-] [VT-03-00065]
- MIC [1]: 4 µg/mL (≈ 8.98 µM)
- MIC [2]: 0.25 µg/mL (≈ 0.561 µM)
- MIC [3]: 1 µg/mL (≈ 2.24 µM)
- MIC (E. coli (ATCC 25922)): > 32 µg/mL
- MIC [4]: > 32 µg/mL
- MIC [5]: > 32 µg/mL
- MIC [6]: > 32 µg/mL

SMILES: COc1ccc2ncc(=O)n(CCN3CCC(NCc4ccc(Br)c([N+](=O)[O-])c4)CC3)c2c1 [VT-03-00066]
- MIC [1]: 1 µg/mL (≈ 1.94 µM)
- MIC [2]: 0.5 µg/mL (≈ 0.968 µM)
- MIC [3]: 1 µg/mL (≈ 1.94 µM)
- inhibition at 0.1 µM (E. coli Gyrase): 55.9%
- inhibition at 1 µM (E. coli Gyrase): 89.9%
- MIC (E. coli (ATCC 25922)): 16 µg/mL (≈ 31 µM)
- MIC [4]: > 32 µg/mL
- MIC [5]: 4 µg/mL (≈ 7.75 µM)
- MIC [6]: 4 µg/mL (≈ 7.75 µM)

SMILES: COc1ccc2ncc(=O)n(CCN3CCC(NCc4ccc([N+](=O)[O-])c(C)c4)CC3)c2c1 [VT-03-00067]
- MIC [1]: 0.25 µg/mL (≈ 0.554 µM)
- MIC [2]: 0.12 µg/mL (≈ 0.266 µM)
- MIC [3]: 0.5 µg/mL (≈ 1.11 µM)
- MIC (E. coli (ATCC 25922)): 16 µg/mL (≈ 35.4 µM)
- MIC [4]: 32 µg/mL (≈ 70.9 µM)
- MIC [5]: 2 µg/mL (≈ 4.43 µM)

SMILES: COc1ccc2ncc(C#N)c(CCN3[C@@H]4CC[C@H]3CC(NCc3ccc([N+](=O)[O-])s3)C4)c2c1 (some centres unmarked) [VT-03-00074]
- MIC [1]: 2 µg/mL (≈ 4.19 µM)
- MIC [2]: 1 µg/mL (≈ 2.09 µM)
- MIC [3]: 2 µg/mL (≈ 4.19 µM)
- MIC (E. coli (ATCC 25922)): 32 µg/mL (≈ 67 µM)
- MIC [5]: 2 µg/mL (≈ 4.19 µM)
- MIC [6]: 8 µg/mL (≈ 16.8 µM)

SMILES: COc1ccc2ncc(C#N)c(CCN3CCC(NCc4cc(C)cc([N+](=O)[O-])c4C)CC3)c2c1 [VT-03-00075]
- MIC [1]: 0.06 µg/mL (≈ 0.127 µM)
- MIC [2]: 0.12 µg/mL (≈ 0.253 µM)
- MIC [3]: 0.12 µg/mL (≈ 0.253 µM)
- MIC (E. coli (ATCC 25922)): 4 µg/mL (≈ 8.45 µM)
- MIC [4]: > 16 µg/mL
- MIC [5]: 0.5 µg/mL (≈ 1.06 µM)
- MIC [6]: 0.5 µg/mL (≈ 1.06 µM)

SMILES: CCc1ccc(CNC2CCN(CCc3c(C#N)cnc4ccc(OC)cc34)CC2)cc1[N+](=O)[O-] [VT-03-00076]
- MIC [1]: 0.03 µg/mL (≈ 0.0633 µM)
- MIC [2]: 0.015 µg/mL (≈ 0.0317 µM)
- MIC [3]: 0.03 µg/mL (≈ 0.0633 µM)
- MIC (E. coli (ATCC 25922)): 2 µg/mL (≈ 4.22 µM)
- MIC [4]: > 16 µg/mL
- MIC [5]: 0.25 µg/mL (≈ 0.528 µM)
- MIC [6]: 0.25 µg/mL (≈ 0.528 µM)

SMILES: COc1ccc2ncc(C#N)c(CCN3CCC(NCc4cc5c(c([N+](=O)[O-])c4)OCO5)CC3)c2c1 [VT-03-00077]
- MIC [1]: 0.12 µg/mL (≈ 0.245 µM)
- MIC [2]: 0.06 µg/mL (≈ 0.123 µM)
- MIC [3]: 0.12 µg/mL (≈ 0.245 µM)
- inhibition at 0.1 µM (E. coli Gyrase): 38.8%
- inhibition at 1 µM (E. coli Gyrase): 88.5%
- MIC (E. coli (ATCC 25922)): 2 µg/mL (≈ 4.09 µM)
- MIC [4]: > 16 µg/mL
- MIC [5]: 0.25 µg/mL (≈ 0.511 µM)
- MIC [6]: 1 µg/mL (≈ 2.04 µM)

SMILES: COc1ccc2ncc(C#N)c(CCN3CCC(NCc4cc([N+](=O)[O-])ccn4)CC3)c2c1 [VT-03-00079]
- MIC [1]: 2 µg/mL (≈ 4.48 µM)
- MIC [2]: 2 µg/mL (≈ 4.48 µM)
- MIC [3]: 2 µg/mL (≈ 4.48 µM)
- inhibition at 0.1 µM (E. coli Gyrase): 16.7%
- inhibition at 1 µM (E. coli Gyrase): 87.6%
- MIC (E. coli (ATCC 25922)): 32 µg/mL (≈ 71.7 µM)
- MIC [5]: 4 µg/mL (≈ 8.96 µM)
- MIC [6]: 32 µg/mL (≈ 71.7 µM)

SMILES: COc1ccc2ncc(C#N)c(CCN3CCC(NCc4csc([N+](=O)[O-])n4)CC3)c2c1 [VT-03-00080]
- MIC [1]: 2 µg/mL (≈ 4.42 µM)
- MIC [2]: 0.25 µg/mL (≈ 0.552 µM)
- MIC [3]: 1 µg/mL (≈ 2.21 µM)
- MIC (E. coli (ATCC 25922)): 32 µg/mL (≈ 70.7 µM)
- MIC [5]: > 4 µg/mL
- MIC [6]: 4 µg/mL (≈ 8.84 µM)

SMILES: COc1ccc2ncc(C#N)c(CCN3CC(CNCc4ccc(C)c([N+](=O)[O-])c4)C3)c2c1 [VT-03-00084]
- MIC [1]: 0.25 µg/mL (≈ 0.561 µM)
- MIC [2]: 0.5 µg/mL (≈ 1.12 µM)
- MIC [3]: 0.5 µg/mL (≈ 1.12 µM)
- MIC (E. coli (ATCC 25922)): 8 µg/mL (≈ 18 µM)
- MIC [5]: 2 µg/mL (≈ 4.49 µM)
- MIC [6]: 2 µg/mL (≈ 4.49 µM)
